In patent US11826432B2, “Linkers, conjugates and applications thereof” (priority 2021, dated 2023):

Columns and labels:
[1] = test system: HER2 high-expressing cancer cells NCI-N87; experiment: Cytotoxicity assay (CellTiter-Glo cell viability), NCI-N87; type: cell-based; details: NCI-N87, 120 h treatment
Procedure: (§1) Cytotoxicity assays were performed using HER2 high-expressing cancer cells SK-BR-3 (FIG. 1) and NCI-N87 (FIG. 2), HER2 low-expressing cancer cells CFPAC-1 (FIG. 3) and NCI-H2110 (FIG. 4), as well as a HER2 negative cell line MDA-MB-468 (FIG. 5) to analyze the effect of conjugates on tumor cell proliferation. […] In brief, 3000 to 5000 cells were plated in 96-well plates, and cells were able to attach overnight. Cells were treated with indicated drugs with various concentrations for 120 h. Cell viabilities were examined by CellTiter-Glo® Luminescent Cell Viability Assay, and percentage of cell viability was calculated.

[2] = test system: HER2 high-expressing cancer cells SK-BR-3; experiment: Cytotoxicity assay (CellTiter-Glo cell viability), SK-BR-3; type: cell-based; details: SK-BR-3, 120 h treatment
Procedure: as §1

`CC[C@@]1(O)C(=O)OCc2c1cc1n(c2=O)Cc2c-1nc1cc(F)c(C)c3c1c2[C@@H](NC(=O)CO)CC3` [compound 10] showed an IC50 [1] of 4.68 nM and an IC50 [2] of 1.47 nM.
